Measured values as given in ChEMBL document CHEMBL3507680, “University of Dundee, Gates Library screen for HepG2 cell viability”.

Assay: Human HepG2 cell viability assay in 384 well format
Format: toxicity, cell-based
Design: dose 125 nL, time 70.5 hour; concentration not given beside the values
Details: HepG2 cells, read-out: Inhibition

Row | Compound | cytotoxicity at 70.5 h
1 | CCc1ccccc1NC(=O)c1cnn(C)c1C | -7.12%
2 | COC(=O)Cn1ccc(=O)c2ccc(OC)cc21 | 39.1%
3 | CCN(CC)C(=O)c1nnsc1-c1ccc(Cl)cc1 | -17.2%
4 | CS(=O)(=O)N1CCN(C(=O)c2cc(-c3cccs3)cs2)CC1 | -5.33%
5 | CS(=O)(=O)N1CCN(C(=O)c2cc(-c3ccco3)cs2)CC1 | 0.0321%
6 | O=C(c1cc(-c2ccco2)cs1)N1CCOCC1 | -0.411%
7 | O=C(NC1CC1)c1cc(Sc2ncccn2)ccn1 | -14.6%
8 | Cc1cc(C(=O)Nc2cnn(CC(F)(F)F)c2)nc(N(C)C)n1 | -1.64%
9 | Cc1ccc(C(=O)Nc2c(C(=O)N(C)C)nn(C)c2C)cc1 | -4.31%
10 | Cc1c(NC(=O)c2ccc(Br)cc2)c(C(=O)N(C)C)nn1C | -6.74%
11 | COc1ccc(C(=O)Nc2c(C(=O)N(C)C)nn(C)c2C)cc1 | -6.56%
12 | Cc1ccnn1C(C)C(=O)Nc1cc(-c2ccncc2)[nH]n1 (configuration not stated) | -6.01%
13 | O=C(c1cc(-c2ccco2)cs1)N1CCCC1 | -16.3%
14 | O=C1c2cnc(N3CCC(O)CC3)nc2CN1Cc1cccc(F)c1 | 22%
15 | NC(=O)CN1CCOCC(Cc2cccc(F)c2)C1 (configuration not stated) | -12.7%
16 | NC(=O)CN1CCOCC(Cc2ccccc2Cl)C1 (configuration not stated) | -3.99%
17 | Cc1ccnc(C2(C)CCCN2C(=O)c2cnccn2)n1 (configuration not stated) | -10.4%
18 | CN(C)c1ncccc1CN1CCOC(C(=O)Nc2ccccc2)C1 (configuration not stated) | -7.2%
19 | Cc1ccccc1CNC(=O)c1ccccc1-n1cc(CN)cn1 | -8.06%

Row | Compound | cytotoxicity at 70.5 h
20 | CN(C)c1cc(C2CCCN2Cc2ccccc2OCC(=O)O)ccn1 (configuration not stated) | -6.83%
21 | O=C(c1ccno1)N1CCCC(c2ncncc2-c2ccncc2)C1 (configuration not stated) | -9.77%
22 | O=C(N1CCOCC1)N1CCCC(c2ncncc2-c2ccncc2)C1 (configuration not stated) | -9.55%
23 | Cc1cc(CN2CCC(C3Nc4ccccc4S(=O)(=O)N3)CC2)oc1C (configuration not stated) | -3.27%
24 | Cc1cc(-c2cnc(N3CCOCC3)nc2-c2cccnc2C)on1 | -4.33%
25 | Cc1cc(-c2cnc(N3CCNC(=O)C3)nc2-c2sccc2C)on1 | -6.64%
26 | CC(=O)N1CCCC(c2ccc(N3CCOCC3)cn2)C1 (configuration not stated) | -5.65%
27 | COCC(=O)N1CCCCC1c1nccc(C)n1 (configuration not stated) | 3.46%
28 | CC(=O)N1CCCC(c2ccc(Br)cn2)C1 (configuration not stated) | -6.22%
29 | CCN1CCCC(c2cc(Nc3cnccn3)nc(C)n2)C1 (configuration not stated) | -6.21%
30 | O=C(C1CCC1)N1CCC(c2ncc3c(n2)CCNC3)CC1 | -6.1%
31 | Cc1cc(C2CCCCCN2Cc2cn(C)nc2C)no1 (configuration not stated) | -6.86%
32 | CN1CCc2nc(C3CCCCN3Cc3ccccc3Cl)ncc2C1 (configuration not stated) | -4.18%
33 | c1cnc(-c2cnc(N3CCCCC3)nc2C2CCCO2)cn1 (configuration not stated) | -5.56%
34 | O=C(c1cscn1)N1CCC(O)(Cn2ccc3ccncc32)CC1 | -6.76%
35 | CCc1cc(C(=O)N2CCC(O)(Cn3ccc4ccncc43)CC2)no1 | -5.47%
36 | Cc1nc(C)c(C(=O)N2CCC(O)(Cn3ccc4ccncc43)CC2)s1 | 1.41%
37 | O=C(C1CCOCC1)N1CCC(O)(Cn2ccc3ccncc32)CC1 | -6.06%
38 | CC(C)S(=O)(=O)N1CCC(c2cc3n(n2)[C@@H](C(F)(F)F)C[C@@H](C)N3)CC1 | -7.62%

Row | Compound | cytotoxicity at 70.5 h
39 | Cc1ccc(S(=O)(=O)N2C[C@H]3C[C@H](NC(=O)c4cc(C)no4)[C@H]3C2)cc1 | -3.09%
40 | Nc1cc(-c2cccs2)nn(CC(=O)NCC2CCCCC2)c1=O | -10%
41 | CCN(Cc1ccccc1)C(=O)c1cc(C2CCCN2C)ccn1 (configuration not stated) | 10.8%
42 | COCC(=O)N1CCC(c2cc(C(F)(F)F)c3c(C)noc3n2)CC1 | 12.4%
43 | Cc1cc(-c2cc(N)c(=O)n(CC(=O)NCC3CCCCC3)n2)c(C)o1 | 12.5%
44 | Cc1ccc(S(=O)(=O)N2C[C@H]3C[C@H](NC(=O)C(C)C)[C@H]3C2)cc1 | 20.3%
45 | Cc1ccc2c(c1)C(=O)NCC1(CCN(C(=O)c3ccccn3)CC1)O2 | -7.17%
46 | Cc1ccc2c(c1)C(=O)NCC1(CCN(C(=O)c3cc(C)no3)CC1)O2 | -7.27%
47 | Cc1ccc2c(c1)C(=O)NCC1(CCN(C(=O)c3ccnn3C)CC1)O2 | -4.65%
48 | Cc1cccc(C(=O)N2C[C@@H]3CC[C@H](Oc4cccc(F)c4)[C@@H]3C2)n1 | -5.82%
49 | NCc1cnn(-c2ccccc2C(=O)NCCc2ccccn2)c1 | -6.02%
50 | COCCNC(=O)c1ccccc1-n1cc(CN)cn1 | -1.19%
51 | Cc1ccc(CC(=O)N(C)CC2(O)CCCN(c3ccccn3)C2)s1 (configuration not stated) | -5.95%
52 | O=c1ccn([C@H]2CCN(Cc3ncc[nH]3)CC[C@@H]2O)c(=O)[nH]1 | -4.85%
53 | Cc1ccc(CN2CC[C@H](O)[C@@H](n3ccc(=O)[nH]c3=O)CC2)cc1 | -2.58%
54 | Cc1noc(C)c1-c1cncc(C2CCCN2Cc2nccs2)n1 (configuration not stated) | -9.87%
55 | Cc1noc(C)c1-c1cncc(C2CCCN2Cc2cn(C)cn2)n1 (configuration not stated) | -5.21%
56 | Fc1ccc(CN2CCCC(c3nccnc3-n3ccnc3)C2)cc1 (configuration not stated) | 3.95%
57 | NCCn1nc(C2CCN(Cc3ccccc3Cl)C2)c2nccnc21 (configuration not stated) | -4.18%
